Values after ≈ are worked out from the molar mass of the structure shown.
Assay: Solubility of enzalutamide in water
Assay type: physicochemical
Settings: 20° C.±5° C.
From the text: The term “to improve solubility” as used herein means that the solubility, the dissolved concentration, or the dissolved rate of enzalutamide in a solvent is increased.
It is possible to obtain good solubility and/or good dissolution properties by applying the technology of the present invention. Further, it is possible to obtain good oral absorbability by applying the technology of the present invention.

CNC(=O)c1ccc(N2C(=S)N(c3ccc(C#N)c(C(F)(F)F)c3)C(=O)C2(C)C)cc1F [Enzalutamide, 4-{3-[4-cyano-3-(trifluoromethyl)phenyl]-5,5-dimethyl-4-oxo-2-sulfanylideneimidazolidin-1-yl}-2-fluoro-N-methylbenzamide]
solubility: 2 µg/mL (≈ 4.31 µM)

Source: patent US12036315B2, “Pharmaceutical composition for oral administration comprising enzalutamide” (Astellas Pharma Inc., priority 2017, dated 2024)
